The assay has as its system mouse-derived macrophage-like cell line RAW264.7. The assay is described as follows: Evaluation of NO production amount by Griess method. The class given is cell-based. The settings on record: general statement of effect; based on suppression of NO production by M1 macrophage. The protocol:
The mouse-derived macrophage-like cell line RAW264.7 was seeded in a 48 well plate 1×10^5 cells per well. After culture for 5 hr, Escherichia coli-derived lipopolysaccharide (LPS) was added to 100 ng/mL over 24 hr to activate RAW264.7 cells. Simultaneously with LPS, various compounds (No. 1-No. 17, LA, ALA) were added at 10 μM, and the concentration of […] (NO2^−), which is an oxide of nitric oxide (NO) produced by macrophage activation, in the culture medium was measured. The amount of NO2 in the culture medium was quantified by the Griess method and in reference to Shan Lin et al., Molecular Nutrition and Food Research 57 (2013) p 1135-1144, “Auraptene suppresses inflammatory responses in activated RAW264 macrophages by inhibiting p38 mitogen-activated protein kinase activation”, the section of Material and methods Measurements of TNF-α, MCP-1, and NO concentrations. The quantification was actually performed as follows. RAW264.7 culture medium treated with LPS and various compounds for 24 hr was recovered. 0.2% N-(1-naphthyl) ethylenediamine and 2% Sulfanilamide/10% H3PO4 were blended at 1:1 immediately before reaction to give a Griess reagent, RAW264.7 culture medium and the Griess reagent were mixed at 1:1 and reacted at room temperature for 10 min. After completion of the reaction, absorbance at 550 nm was measured. NaNO2 was used as the NO2^− standard product, and the NO2^− concentration in the culture medium was calculated. The concentration of the sample was adjusted with ethanol. Ethanol was used as a negative control, and BAY11-7082 (5 μM), which is a IκBα phosphorylation inhibitor, was used as a positive control.
Background: The Griess reaction detects nitrite, a stable product of nitric oxide.
On to `CCCCCC(=O)CC/C=C\CCCCCCCC(=O)O` [No. 15, 13-oxo-cis-9-octadecenoic acid], for which the anti-inflammatory action entry was “have an anti-inflammatory action”.
As for `CCCCCC(O)CC/C=C\CCCCCCCC(=O)O` (stereo not drawn) [No. 14, 13-hydroxy-cis-9-octadecenoic acid], the anti-inflammatory action entry is given as “have an anti-inflammatory action”.
For `CCCCC/C=C\CC(O)CCCCCCCCC(=O)O` (stereo not drawn) [No. 4, 10-hydroxy-cis-12-octadecenoic acid], the anti-inflammatory action result is “have an anti-inflammatory action”.
`CCCCC/C=C\CC(=O)CCCCCCCCC(=O)O` [No. 6, 10-oxo-cis-12-octadecenoic acid]: the anti-inflammatory action entry is “have an anti-inflammatory action”.

The values are drawn from patent publication US12697318B2, “Anti-inflammatory agent containing rare fatty acid” (Noster Inc., priority 2014, dated 2026).
